Experiment [1] relates to Glomerella cingulate QDAU-12. In words: Antimicrobial 96-well microtiter plate assay, G. cingulate. In kind it is cell-based. The note with it: amphotericin B as positive control.
In experiment [2] the test system is Pseudomonas aeruginosa QDIO-4. Kind of experiment: Antimicrobial 96-well microtiter plate assay, P. aeruginosa. In kind it is cell-based. The note with it: amphotericin B as positive control (as footnoted).
Experiment [3] relates to F. oxysporum f. sp. cucumerinum QDAU-8. In words: Antimicrobial 96-well microtiter plate assay, F. oxysporum f. sp. cucumerinum. In kind it is cell-based, Fusarium oxysporum f. sp. cucumerinum. The note with it: amphotericin B as positive control.
The subject of experiment [4] is Bipolaris sorokiniana QDAU-5. Kind of experiment: Antimicrobial 96-well microtiter plate assay, B. sorokiniana. In kind it is cell-based.
The test system of a further experiment is Escherichia coli EMBLC-1. In words: Antimicrobial 96-well microtiter plate assay, E. coli. In kind it is cell-based.
For experiment [5], the system named is Staphylococcus aureus EMBLC-2. Kind of experiment: Antimicrobial 96-well microtiter plate assay, S. aureus. In kind it is cell-based.
The subject of another experiment is E. tarda QDIO-2. In words: Antimicrobial 96-well microtiter plate assay, E. tarda. In kind it is cell-based, Edwardsiella tarda.
Experiment [6] has as its system Edwardsiella ictarda QDIO-9. In words: Antimicrobial 96-well microtiter plate assay, E. ictarda. The note with it: chloramphenicol as positive control. In kind it is cell-based.
[7] abbreviates: Pseudomonas aeruginosa, QDIO4, P. aeruginosa, read-out: MIC.
Where [8] appears, read: Fusarium oxysporum, read-out: MIC.
Where [9] appears, read: Bipolaris sorokiniana, QDAU5, amphotericin B as positive control, read-out: MIC.
Setting [10] is: Escherichia coli, EMBLC1, chloramphenicol as positive control, read-out: MIC.
[11] abbreviates: Staphylococcus aureus, EMBLC2, chloramphenicol as positive control, read-out: MIC.
Where [12] appears, read: Edwardsiella tarda, QDIO2, chloramphenicol as positive control, read-out: MIC.
The mark [13] stands for this setting: Edwardsiella, QDIO9, E. ictarda, read-out: MIC.
Setting [14] is: chloramphenicol as positive control.

Values after ≈ are worked out from the molar mass of the structure shown. Where two headings read alike, the source gives them in different places.

The term MIC denotes the least concentration at which growth counts as inhibited. Turning to `C[C@@H]1[C@H](O)[C@@H](C)/C=C/C=C/C=C/C=C/C=C/C=C/C=C/[C@H](O[C@@H]2O[C@H](C)[C@@H](O)[C@H](N)[C@@H]2O)C[C@@H]2O[C@](O)(C[C@@H](O)C[C@@H](O)[C@H](O)CC[C@@H](O)C[C@@H](O)CC(=O)O[C@H]1C)C[C@H](O)[C@H]2C(=O)O` [Amphotericin B, reference compound], the MIC in experiment [1] (read-out: MIC) was determined as 0.5 µg/mL (≈ 0.541 µM); in experiment [2] (setting [7]), 2 µg/mL (≈ 2.16 µM); in experiment [3] (setting [8]), 0.5 µg/mL (≈ 0.541 µM); in experiment [4] (setting [9]), 0.5 µg/mL (≈ 0.541 µM).

As to `O=C(N[C@H](CO)[C@H](O)c1ccc([N+](=O)[O-])cc1)C(Cl)Cl` [Chloramphenicol, reference compound], the MIC was 2 µg/mL (≈ 6.19 µM) in the experiment on Escherichia coli EMBLC-1 (setting [10]), 1 µg/mL (≈ 3.09 µM) in experiment [5] (setting [11]), 0.5 µg/mL (≈ 1.55 µM) with E. tarda QDIO-2 (setting [12]) and 0.5 µg/mL (≈ 1.55 µM) in experiment [6] (setting [13]).

For the compound `CC1CC=CCCC(O)CCCC(=O)O1` (stereo not drawn) [Compound 1, 5R-hydroxyrecifeiolide], the MIC entry in experiment [1] was “– ((–) = MIC > 64 μg/mL)”; with Escherichia coli EMBLC-1 (setting [10]), more than 64 µg/mL; in experiment [2] (setting [7]) it was 32 µg/mL (≈ 151 µM); in experiment [5] (setting [11]), more than 64 µg/mL; with E. tarda QDIO-2 (setting [12]), more than 64 µg/mL; in experiment [3] (setting [8]), more than 64 µg/mL. The MIC in experiment [4] (setting [9]) is more than 64 µg/mL; in experiment [6] (setting [13]), 32 µg/mL (≈ 151 µM).

In the case of `CC1CC=CCCC(O)CCCC(=O)O1` (stereo not drawn) [Compound 2, 5S-hydroxyrecifeiolide], the MIC was 16 µg/mL (≈ 75.4 µM) in experiment [1]; “– ((–) = MIC > 64 μg/mL)” against Escherichia coli EMBLC-1 (setting [14]); “– ((–) = MIC > 64 μg/mL)” in experiment [2] (P. aeruginosa); “– ((–) = MIC > 64 μg/mL)” in experiment [5] (setting [14]); “– ((–) = MIC > 64 μg/mL)” with E. tarda QDIO-2 (setting [14]); “– ((–) = MIC > 64 μg/mL)” in experiment [3]. Besides, the minimal inhibitory concentration (MIC) result in experiment [4] (amphotericin B as positive control) and in experiment [6] (E. ictarda) was “– ((–) = MIC > 64 μg/mL)” throughout.

As for `CC(O)CCCCCCC1OC(=O)CC1O` (stereo not drawn) [Compound 3, ent-cladospolide F], the minimum inhibitory concentration (MIC) in experiment [1] (read-out: MIC) was more than 64 µg/mL; with Escherichia coli EMBLC-1 (setting [10]) it was more than 64 µg/mL; in experiment [2] (setting [7]), 64 µg/mL (≈ 278 µM); in experiment [5] (setting [11]) it was 8 µg/mL (≈ 34.7 µM); in the experiment with E. tarda QDIO-2 (setting [12]) it was more than 64 µg/mL; in experiment [3] (setting [8]), more than 64 µg/mL. Further, the MIC in experiment [4] (setting [9]) is more than 64 µg/mL; in experiment [6] (setting [13]) it was 16 µg/mL (≈ 69.5 µM).

With `CC(=O)OC(C)CCCCCCC1OC(=O)CC1O` (centres unmarked) [Compound 4, cladospolide G], the MIC in experiment [1] (read-out: MIC) was 1 µg/mL (≈ 3.67 µM); in the experiment with Escherichia coli EMBLC-1 (setting [10]), 32 µg/mL (≈ 117 µM); in experiment [2] (setting [7]), more than 64 µg/mL; in experiment [5] (setting [11]), more than 64 µg/mL; in the experiment with E. tarda QDIO-2 (setting [12]), more than 64 µg/mL; in experiment [3] (setting [8]), 1 µg/mL (≈ 3.67 µM). The MIC was 32 µg/mL (≈ 117 µM) in experiment [4] (setting [9]) and more than 64 µg/mL in experiment [6] (setting [13]).

Regarding `CC(O)CCCCCC(O)C1C=CC(=O)O1` (centres unmarked) [Compound 6, iso-cladospolide B], the minimum inhibitory concentration (MIC) in experiment [1] (read-out: MIC) was 64 µg/mL (≈ 280 µM); with Escherichia coli EMBLC-1 (setting [10]), 32 µg/mL (≈ 140 µM); in experiment [2] (setting [7]) it was more than 64 µg/mL; in experiment [5] (setting [11]), more than 64 µg/mL; in the experiment on E. tarda QDIO-2 (setting [12]) it was 32 µg/mL (≈ 140 µM); in experiment [3] (setting [8]) it was more than 64 µg/mL. Moreover, the figures for the minimum inhibitory concentration (MIC) in experiment [4] (setting [9]) and in experiment [6] (setting [13]) were more than 64 µg/mL and 16 µg/mL (≈ 70.1 µM), respectively.

As for `C[C@H]1CCCCC[C@H](O)C(=O)[C@H](O)CC(=O)O1` [Compound 7, pandangolide 1], the MIC in experiment [1] (read-out: MIC) is 1 µg/mL (≈ 4.09 µM); in the experiment on Escherichia coli EMBLC-1 (setting [10]) it was more than 64 µg/mL; in experiment [2] (setting [7]), 32 µg/mL (≈ 131 µM); in experiment [5] (setting [11]) it was 32 µg/mL (≈ 131 µM); with E. tarda QDIO-2 (setting [12]), more than 64 µg/mL; in experiment [3] (setting [8]), more than 64 µg/mL. The MIC in experiment [4] (setting [9]) is more than 64 µg/mL; in experiment [6] (setting [13]), 4 µg/mL (≈ 16.4 µM).

These data come from PMC6563031, “Polyketides from the Mangrove-Derived Endophytic Fungus Cladosporium cladosporioides” (Marine Drugs, 2019).
